Measured values published in article PMC9178010, “Identification and characterization of a prokaryotic 6-4 photolyase from Synechococcus elongatus with a deazariboflavin antenna chromophore” (Nucleic Acids Research, 2022).

Tests used:
Type in all cases: binding
[1] = biological target: T1, SePhrB (SePhrB[Ec]; SePhrB[ScFbiC]; SePhrB[8-HDF]) (Synechococcus elongatus, UniProt Q31P18); test: co-purified cofactor; absorption, fluorescence and TLC of denatured protein
T1 construct: gene Synpcc7942_1171; full-length gene in pET22b, E. coli BL21(DE3), Ni-NTA and Superdex 200; iron-sulfur cluster protein; expressed alone or with S. coelicolor FbiC
T1 sequence (Q31P18 1-503): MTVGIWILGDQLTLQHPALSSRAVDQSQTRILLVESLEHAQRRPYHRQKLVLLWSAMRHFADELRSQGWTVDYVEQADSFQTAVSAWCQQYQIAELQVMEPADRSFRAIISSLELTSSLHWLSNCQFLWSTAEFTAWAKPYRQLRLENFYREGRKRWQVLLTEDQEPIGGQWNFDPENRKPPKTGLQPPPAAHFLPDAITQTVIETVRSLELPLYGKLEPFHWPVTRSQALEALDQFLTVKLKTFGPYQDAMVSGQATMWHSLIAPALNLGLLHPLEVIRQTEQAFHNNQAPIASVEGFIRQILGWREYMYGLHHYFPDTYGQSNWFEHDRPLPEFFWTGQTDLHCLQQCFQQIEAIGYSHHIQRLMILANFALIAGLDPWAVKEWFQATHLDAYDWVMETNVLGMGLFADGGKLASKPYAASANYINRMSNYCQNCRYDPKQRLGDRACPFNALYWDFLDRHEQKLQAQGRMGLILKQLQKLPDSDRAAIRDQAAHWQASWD

[2] = biological target: T2, SePhrA (SePhrA[ScFbiC]) (Synechococcus elongatus, UniProt Q31S25); test: TLC of denatured protein supernatant; settings: catalytic cofactor; co-expressed with S. coelicolor FO synthase FbiC
T2 construct: gene Synpcc7942_0112; full-length gene in pET22b, E. coli BL21(DE3), co-expressed with S. coelicolor FbiC; Ni-NTA and Superdex 200
T2 sequence (Q31S25 1-484): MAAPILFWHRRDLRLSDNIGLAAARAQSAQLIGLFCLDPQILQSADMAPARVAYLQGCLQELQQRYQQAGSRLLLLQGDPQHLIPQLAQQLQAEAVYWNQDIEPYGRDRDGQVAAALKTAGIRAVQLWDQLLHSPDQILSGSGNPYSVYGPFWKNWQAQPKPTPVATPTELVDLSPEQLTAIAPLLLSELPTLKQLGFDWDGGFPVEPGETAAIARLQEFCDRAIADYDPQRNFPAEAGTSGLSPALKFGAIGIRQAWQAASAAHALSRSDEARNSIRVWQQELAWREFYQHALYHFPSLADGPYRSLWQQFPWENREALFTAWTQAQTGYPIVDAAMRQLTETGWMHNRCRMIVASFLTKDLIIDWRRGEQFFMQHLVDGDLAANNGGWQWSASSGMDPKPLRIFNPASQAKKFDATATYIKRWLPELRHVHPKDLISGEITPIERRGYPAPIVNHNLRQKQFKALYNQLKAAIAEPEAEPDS

[3] = biological target: T3, AfPhrB (Agrobacterium fabrum, UniProt A9CH39); test: co-purified cofactor; absorption, fluorescence and TLC of denatured protein; settings: co-purified from E. coli
T3 construct: gene phrB; synthetic phrB gene in pET22b, E. coli BL21(DE3), Ni-NTA and Superdex 200
T3 sequence (A9CH39 whole entry): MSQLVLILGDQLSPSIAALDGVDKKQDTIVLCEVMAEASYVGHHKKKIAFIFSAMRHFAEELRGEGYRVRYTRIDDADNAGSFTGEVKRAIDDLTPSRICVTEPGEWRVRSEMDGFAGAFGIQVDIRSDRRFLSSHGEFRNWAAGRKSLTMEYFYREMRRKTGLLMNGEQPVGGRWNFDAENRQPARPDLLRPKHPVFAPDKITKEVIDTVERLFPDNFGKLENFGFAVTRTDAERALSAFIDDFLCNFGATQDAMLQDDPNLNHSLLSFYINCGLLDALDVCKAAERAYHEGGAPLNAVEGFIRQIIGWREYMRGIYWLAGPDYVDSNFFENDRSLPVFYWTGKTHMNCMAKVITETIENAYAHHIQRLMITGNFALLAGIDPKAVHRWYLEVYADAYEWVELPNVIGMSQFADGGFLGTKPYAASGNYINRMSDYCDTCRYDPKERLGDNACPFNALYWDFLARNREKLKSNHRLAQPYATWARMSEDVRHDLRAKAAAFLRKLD

[4] = biological target: T2, SePhrA (SePhrA[ScFbiC]); test: as above; settings: antenna chromophore; co-expressed with S. coelicolor FO synthase FbiC

Cc1cc2nc3c(=O)[nH]c(=O)nc-3n(C[C@H](O)[C@H](O)[C@H](O)COP(=O)(O)OP(=O)(O)OC[C@H]3O[C@@H](n4cnc5c(N)ncnc54)[C@H](O)[C@@H]3O)c2cc1C [FAD]
co-purified cofactor; absorption, fluorescence and TLC of denatured protein ([1]; catalytic cofactor, expressed in E. coli without FbiC, fully oxidized as purified): SePhrB[Ec] gave only one yellow fluorescent band with the same Rf value of authentic FAD
TLC of denatured protein supernatant [2]: each of them had a yellow FAD band
co-purified cofactor; absorption, fluorescence and TLC of denatured protein ([3]; catalytic cofactor): the supernatant of AfphrB produced a yellow fluorescent band of FAD

Cc1nc2c(=O)[nH]c(=O)nc-2n(C[C@H](O)[C@H](O)[C@H](O)CO)c1C [DMRL, 6,7-dimethyl-8-ribityllumazine]
co-purified cofactor; absorption, fluorescence and TLC of denatured protein ([3]; antenna chromophore): a yellow fluorescent band of FAD, and a blue-green fluorescent band of DMRL

O=c1nc2n(C[C@H](O)[C@H](O)[C@H](O)CO)c3cc(O)ccc3cc-2c(=O)[nH]1 [8-HDF, 7,8-didemethyl-8-hydroxy-5-deazariboflavin]
co-purified cofactor; absorption, fluorescence and TLC of denatured protein ([1]; antenna chromophore, co-expressed with S. coelicolor FO synthase FbiC): SePhrB associates with FAD and 8-HDF when co-expressed with the ScFbiC
co-purified cofactor; absorption, fluorescence and TLC of denatured protein [4]: an additional bright blue band that was attributed to 8-HDF
